Measurements: publication PMC1448180, “Small-molecule and mutational analysis of allosteric Eg5 inhibition by monastrol” (BMC Chemical Biology, 2006)
Changes are numbered by the printed parent chain. Like-named read-outs stand apart in the source and are kept apart here.

Legend:
hEg5-367H = target: T1, hEg5-367H (Homo sapiens, UniProt P52732); test: ATP hydrolysis by recombinant human Eg5 motor domain (NADH-enzyme coupled assay); format: biochemical
T1 construct: motor domain (amino acid residues 1–367) of human Eg5; His6 (C); made in house
T1 sequence (P52732 1-367): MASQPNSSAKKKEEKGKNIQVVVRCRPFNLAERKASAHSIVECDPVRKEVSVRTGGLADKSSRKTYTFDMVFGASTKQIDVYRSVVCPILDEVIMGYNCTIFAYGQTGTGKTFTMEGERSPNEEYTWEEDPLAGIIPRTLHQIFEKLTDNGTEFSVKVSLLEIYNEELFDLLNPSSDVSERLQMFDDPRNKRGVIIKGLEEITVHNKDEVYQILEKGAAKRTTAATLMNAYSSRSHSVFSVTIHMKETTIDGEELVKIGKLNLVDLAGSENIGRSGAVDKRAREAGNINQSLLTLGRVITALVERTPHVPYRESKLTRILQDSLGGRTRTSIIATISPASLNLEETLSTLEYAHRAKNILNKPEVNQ
Procedure: Figure 2 Structure-activity relationship of monastrol derivatives. (A) Scheme depicting the Biginelli condensation, a one-pot reaction for preparing monastrol derivatives. […] Each data point is the average of three independent experiments. […] Each cell-based assay was performed in duplicate.
We used a modified PCR mutagenesis protocol to introduce mutations into hEg5-367H, a plasmid encoding the C-terminally His6-tagged motor domain (amino acid residues 1–367) of human Eg5. The wild-type and mutant proteins were expressed and purified using Ni-NTA affinity chromatography and concentrated to between 3 and 10 mg/ml protein as described.
(§1) ATP hydrolysis by recombinantly expressed kinesin motor domains was measured using an NADH-enzyme coupled assay. ATP hydrolysis was measured in KC25 buffer supplemented with 5 μM taxol, 1 mM ATP-KOH (pH 7.0), the appropriate concentration of motor domain, and the appropriate concentrations of taxol-polymerized microtubules.

AB9 cells = test: Spindle phenotype of D. rerio cells treated with monastrol; format: cell-based; details: data not shown
Source text: Monastrol binds a hydrophobic pocket between loop 5 and α3 that is poorly conserved among kinesins, resulting in specificity for vertebrate Eg5 homologs. […] Monastrol is known to inhibit human and Xenopus Eg5 [7, 9], but not BimC [27]. To test its effect on D. rerio Eg5 and Klp-61F, we treated AB9 and KC167 cells with monastrol. […] To obtain unambiguous evidence, we cloned the motor domain of Klp-61F and subjected the recombinant protein to ATPase assays in the presence or absence of microtubules.
Conditions for growing the following cell lines are as described: D. rerio AB9 (37), D. melanogaster KC167 [38], and BS-C-1 green monkey kidney cells. For immunofluorescence microscopy, cells were grown on 12 mm circular coverslips to 30 % confluence, treated medium supplemented with drug and 0.2% DMSO, or a DMSO alone, for 6 hours, fixed with formaldehyde, and stained for DNA and microtubules, as described. D. melanogaster KC167 cells were cultured in Schneider's Drosophila Medium (GIBCO) whereas D. rerio AB9 cells and BS-C-1 green monkey kidney cells were cultured at 37°C in Dulbecco's Minimal medium in the presence of 10 % heat inactivated fetal calf serum.

hEg5-367H (L214I) = target: T2, hEg5-367H (L214I) (Homo sapiens, UniProt P52732, L214I); test: ATP hydrolysis by Eg5 motor domain mutant L214I; format: biochemical; details: Figure 4B; legend: basal ATP hydrolysis; read-out: IC50(μM) of monastrol, (L214I)
T2 sequence (P52732 1-367 L214I): T1 sequence (P52732 1-367) with L214I
Source text: Figure 4 Mutagenesis of the monastrol binding site in human Eg5. (A) Design of mutations in the human Eg5 motor domain. Amino acid side chains that are not conserved between Eg5 and conventional kinesin were targeted, either introducing chimeric or rationally designed mutations (asterix for targeted point mutants) to test the contribution of residues to the drug-sensitivity of Eg5. (B) Steady-state enzymatic parameters for engineered human Eg5 motor domain mutants. Steady-state ATP hydrolysis by Eg5 was measured using an NADH-enzyme coupled assay varying the concentration of ATP, microtubules, or monastrol to obtain the microtubule concentration for half-maximal stimulation (K0.5MT), the maximal rate of microtubule-stimulated ATP hydrolysis (kcat), and the concentration of monastrol that inhibits basal ATP hydrolysis by 50 % (IC50), as described.
We used a modified PCR mutagenesis protocol to introduce mutations into hEg5-367H, a plasmid encoding the C-terminally His6-tagged motor domain (amino acid residues 1–367) of human Eg5. […]
as §1

CCOC(=O)C1=C(C)NC(=S)NC1c1cccc(O)c1 (stereo not shown) [Monastrol]
IC50 (hEg5-367H; 500 nM hEg5-367H, KC25 buffer, 1 mM ATP-KOH (pH 7.0), 1 μM taxol-stabilized microtubules, read-out: IC50 (μM), inhibition of ATP hydrolysis by Eg5 motor domain): 5.2 ± 0.4 µM
IC50 (hEg5-367H; wild-type motor domain, Figure 4B, legend: basal ATP hydrolysis, read-out: IC50(μM) of monastrol, hEg5-367H): 10 ± 2 µM
Effect on mitosis in D. rerio cells (AB9 cells): mitotic arrest
IC50 (hEg5-367H (L214I)): 63 ± 7 µM
